Results taken from ChEMBL document CHEMBL3400117, “2-Aminophenanthroline dimer stabilized the C-C mismatched duplex DNA” (Bioorg Med Chem, 2015).

Key:
[1] = Binding affinity to 5'-CTAACTGAATG-3'/3'-GATTGTCTTAC-5' duplex DNA (unknown origin) in sodium cacodylate buffer assessed as change in melting temperature at 10 uM at pH 7
[2] = Binding affinity to 5'-CTAACTGAATG-3'/3'-GATTGCCTTAC-5' duplex DNA (unknown origin) in sodium cacodylate buffer assessed as change in melting temperature at 10 uM at pH 7
[3] = Binding affinity to 5'-CTAACTGAATG-3'/3'-GATTGGCTTAC-5' duplex DNA (unknown origin) in sodium cacodylate buffer assessed as change in melting temperature at 10 uM at pH 7
[4] = Binding affinity to 5'-CTAACAGAATG-3'/3'-GATTGACTTAC-5' duplex DNA (unknown origin) in sodium cacodylate buffer assessed as change in melting temperature at 10 uM at pH 7
[5] = Binding affinity to 5'-CTAACAGAATG-3'/3'-GATTGCCTTAC-5' duplex DNA (unknown origin) in sodium cacodylate buffer assessed as change in melting temperature at 10 uM at pH 7
[6] = Binding affinity to 5'-CTAACAGAATG-3'/3'-GATTGGCTTAC-5' duplex DNA (unknown origin) in sodium cacodylate buffer assessed as change in melting temperature at 10 uM at pH 7
[7] = Binding affinity to 5'-CTAACCGAATG-3'/3'-GATTGCCTTAC-5' duplex DNA (unknown origin) in sodium cacodylate buffer assessed as change in melting temperature at 10 uM at pH 7
[8] = Binding affinity to 5'-CTAACGGAATG-3'/3'-GATTGGCTTAC-5' duplex DNA (unknown origin) in sodium cacodylate buffer assessed as change in melting temperature at 10 uM at pH 7
[9] = Binding affinity to 5'-CTAACTGAATG-3'/3'-GATTGACTTAC-5' duplex DNA (unknown origin) in sodium cacodylate buffer assessed as change in melting temperature at 10 uM at pH 7
[10] = Binding affinity to 5'-CTAACCGAATG-3'/3'-GATTGGCTTAC-5' duplex DNA (unknown origin) in sodium cacodylate buffer assessed as change in melting temperature at 10 uM at pH 7
[11] = Binding affinity to 5'-GCTAAGCCAATGA-3'/3'-CGATTCCGTTACT-5' duplex DNA (unknown origin) assessed as change in melting temperature
[12] = Binding affinity to 5'-GCTAAGCTAATGA-3'/3'-CGATTCCATTACT-5' duplex DNA (unknown origin) assessed as change in melting temperature
[13] = Binding affinity to 5'-GCTAACCCAATGA-3'/3'-CGATTGCGTTACT-5' duplex DNA (unknown origin) assessed as change in melting temperature
[14] = Binding affinity to 5'-GCTAAGCAAATGA-3'/3'-CGATTCCTTTACT-5' duplex DNA (unknown origin) assessed as change in melting temperature
[15] = Binding affinity to 5'-GCTAAACTAATGA-3'/3'-CGATTTCATTACT-5' duplex DNA (unknown origin) assessed as change in melting temperature
[16] = Binding affinity to 5'-GCTAAACAAATGA-3'/3'-CGATTTCTTTACT-5' duplex DNA (unknown origin) assessed as change in melting temperature
[17] = Binding affinity to 5'-GCTAACCTAATGA-3'/3'-CGATTGCATTACT-5' duplex DNA (unknown origin) assessed as change in melting temperature
[18] = Binding affinity to 5'-GCTAATCAAATGA-3'/3'-CGATTACTTTACT-5' duplex DNA (unknown origin) assessed as change in melting temperature
[19] = Binding affinity to 5'-GCTAACCAAATGA-3'/3'-CGATTGCTTTACT-5' duplex DNA (unknown origin) assessed as change in melting temperature
[20] = Binding affinity to 5'-GCTAACCGAATGA-3'/3'-CGATTGCCTTACT-5' duplex DNA (unknown origin) assessed as change in melting temperature
[21] = Binding affinity to 5'-CTAACCGAATG-3'/3'-GATTGCCTTAC-5' duplex DNA (unknown origin) in sodium cacodylate buffer assessed as change in melting temperature at pH 7
[22] = Binding affinity to 5'-TCCAG_GCAAC-3'/3'-AGGTCACGTTG-5' duplex DNA (unknown origin) in sodium cacodylate buffer assessed as change in melting temperature at 20 uM at pH 7
[23] = Binding affinity to 5'-TCCAG_GCAAC-3'/3'-AGGTCTCGTTG-5' duplex DNA (unknown origin) in sodium cacodylate buffer assessed as change in melting temperature at 20 uM at pH 7
[24] = Binding affinity to 5'-TCCAG_GCAAC-3'/3'-AGGTCCCGTTG-5' duplex DNA (unknown origin) in sodium cacodylate buffer assessed as change in melting temperature at 20 uM at pH 7
[25] = Binding affinity to 5'-TCCAG_GCAAC-3'/3'-AGGTCGCGTTG-5' duplex DNA (unknown origin) in sodium cacodylate buffer assessed as change in melting temperature at 20 uM at pH 7
[26] = Binding affinity to 5'-TCCAGGCAAC-3'/3'-AGGTCCGTTG-5' duplex DNA (unknown origin) in sodium cacodylate buffer assessed as change in melting temperature at 20 uM at pH 7

SMILES	ΔTm [1] [°C]	ΔTm [2] [°C]	ΔTm [3] [°C]	ΔTm [4] [°C]	ΔTm [5] [°C]	ΔTm [6] [°C]	ΔTm [7] [°C]	ΔTm [8] [°C]	ΔTm [9] [°C]	ΔTm [10] [°C]	other results
O=C(CCNCCC(=O)Nc1ccc2ccc3cccnc3c2n1)Nc1ccc2ccccc2n1	1.5	2.3	0.1	0	0.4	-0.2	2.6	0.3	-0.1	0.3	
O=C(CCNCCC(=O)Nc1ccc2ccc3cccnc3c2n1)Nc1ccc2ccc3cccnc3c2n1	1.4	4.4	0.3	2.1	4.4	1.5	7.8	1.4	0.4	0.3	ΔTm [11]: 6.5 °C; ΔTm [12]: 5.6 °C; ΔTm [13]: 4.7 °C; ΔTm [14]: 4.2 °C; ΔTm [15]: 5.7 °C; ΔTm [16]: 4 °C; ΔTm [17]: 5.6 °C; ΔTm [18]: 4.4 °C; ΔTm [19]: 3.8 °C; ΔTm [20]: 4 °C; Activity [21]: Dose-dependent effect
O=C(CCNCCC(=O)Nc1ccc2ccccc2n1)Nc1ccc2ccccc2n1	0.2	0.7	-0.5	-0.5	1.6	-0.4	2.6	-0.2	-0.1	0.2	
NCCC(=O)Nc1ccc2ccc3cccnc3c2n1	1.3	0.4	1.3	1.3	0.5	1.2	1.6	0.8	0.9	0.6	ΔTm [22]: 3.4 °C; ΔTm [23]: 3.6 °C; ΔTm [24]: 6 °C; ΔTm [25]: 3 °C; ΔTm [26]: 0.2 °C
